Laboratory results as given in article PMC3579193, “Elucidation of relaxin-3 binding interactions in the extracellular loops of RXFP3” (Frontiers in Endocrinology, 2013).
Ends that are not written are not given here.

Key:
[1] = test system: RXFP4 over RXFP3; details: ref Zhu et al., 2008; cited from earlier work
Description: (§1) Although residues in the peptides have been identified as critical for activity, the specific residues in the receptors that are interacting with these are unknown. […] In addition they determined that sites in transmembrane (TM) 2, 3, and 5 are involved in receptor activation by INSL5 ([Zhu et al., 2008]). None of the receptor chimeras resulted ...

[2] = target: HA-RXFP3 E245A (human) (UniProt Q9NSD7); assay: europium-labelled ligand binding on cells; specific binding of 5 nM Eu-H3/I5 to transfected HEK-293T cells in 96 well optiplates; non-specific binding with 1 uM unlabeled H3 relaxin; expressed as ratio of specific binding to cell surface expression, normalized to HA-RXFP3
[3] = target: HA-RXFP3 E77A (human) (UniProt Q9NSD7); assay: as above
[4] = test system: chimeric RXFP3/4 receptors; details: ref Zhu et al., 2008; cited from earlier work
Description: as §1

[5] = test system: RXFP4; details: ref Liu et al., 2003a; cited from earlier work
Description: Relaxin-3 is a member of the relaxin peptide family. Peptides from this family activate relaxin family peptide (RXFP) receptors, which are Type I or Class A G protein-coupled receptors (GPCRs). […] The rela ... || Based on the hypothesis that coevolution of relaxin-3 and RXFP3 occurred in vertebrates and that residues important for relaxin-3 binding and activation should therefore be conserved we performed multiple sequence alignments of all vertebrate RXFP3 sequences. […] Figure 1A highlights sequence alignments of representative mammalian species (human, chimpanzee, rat, mouse, platypus) and representative lower vertebrate species (Frog and Zebrafish) from this analysis compa ... || Based on the hypothesis that coevolution of relaxin-3 and RXFP3 occurred in vertebrates, and in the knowledge that the key relaxin-3 B-chain residues are conserved across all vertebrate species ([Wilkinson et al., 2005b]), we performed multiple sequence alignments of all vertebrate RXFP3 sequences to identify highly conserved residues in the ELs and NT domain that may be involved in relaxin-3 binding. […] We have focused on glutamic (E) and aspartic acid (D) residues ...

[6] = test system: rats; details: central administration, ref McGowan et al., 2005, 2006, Ganella et al., 2012b; cited from earlier work
Description: Relaxin-3 is involved in a wide range of behaviors, including feeding, stress responses, arousal, and cognitive processes ([Smith et al., 2011]). […] Relaxin-3 neuronal activity and production of relaxi ...

[7] = test system: RXFP1; details: ref Sudo et al., 2003; cited from earlier work
Description: Relaxin-3 is a member of the relaxin peptide family. Peptides from this family activate relaxin family peptide (RXFP) receptors, which are Type I or Class A G protein-coupled receptors (GPCRs). […] The rela ...

INSL5: related insulin-like peptide-5, ligand of RXFP4 (Insulin-like peptide INSL5 B … KESVRLCGLEYIRTVIYICASSRW; Insulin-like peptide INSL5 A … QDLQTLCCTDGCSMTDLSALC; ends and bridges not checked; cysteine pairing not given here; UniProt Q9Y5Q6 23-46; Q9Y5Q6 115-135, looked up)
selectivity [1]: selectivity of INSL5 for RXFP4 over RXFP3

mono-Eu-labeled relaxin-3 agonist H3 relaxin B-chain, INSL5 A chain (H3/I5) (ligand)
decrease in specific binding against HA-RXFP3 [2]: 50%
loss of specific binding against HA-RXFP3 [3]: 50%

relaxin-3: highly conserved neuropeptide, member of the relaxin peptide family; endogenous ligand of RXFP3
effect of receptor chimeras on binding or activity [4]: None of the receptor chimeras resulted in appreciable changes in relaxin-3 binding or activity
binding to and activation of RXFP4 [5]: able to bind to and activate both RXFP4
effect on feeding [6]: increase feeding in rats
binding to and activation of RXFP1 [7]: able to bind to and activate both RXFP4 ([Liu et al., 2003a]) and RXFP1
